Source: patent US10179790B2 (THOMAS HELLEDAYS STIFTELSE FOR MEDICINSK FORSKNING, priority 2014, dated 2019)

How the values were obtained:
[1] = molecular target: MTH1 (Homo sapiens, UniProt P36639); test: MTH1 enzymatic assay and IC50 value determination (malachite green, 96- and 384-well format); format: biochemical; details: hydrolysis of dGTP (100 μM), MTH1 6 nM, pyrophosphatase-coupled malachite green, 15 minutes at 22° C.
How it was run: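 MTH1 (6 nM) hydrolysed dGTP (100 μM) for 15 min at 22 °C in Tris-acetate buffer with Mg2+, DTT, Tween 20 and excess pyrophosphatase, 1% DMSO. Pi detected with malachite green at 630 nm. IC50 from nonlinear 4-parameter fit of 11–12-point dilution series.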

[2] = system: cancer cell; test: Cell viability assay (resazurin); format: cell-based; details: 72 h; 3 days with compound, resazurin fluorescence; cell line not named
How it was run: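 Cells in DMEM GlutaMAX or line-appropriate medium are exposed to compound for 3 days at 37 °C, 5% CO2. Viability is read as resazurin fluorescence (Ex544/Em590) after 2 h incubation. In the 384-well format, cells are seeded onto 11 pre-dispensed concentrations (final DMSO <1%) and read after 3 h resazurin.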

SMILES | IC50 [1] [µM] | IC50 [2] [µM]
Cc1c(Cl)cccc1-c1cc(NCCc2ccc([S+](C)[O-])cc2)nc(N)n1 (stereo not shown) [Example 196, 6-(3-chloro-2-methylphenyl)-N4-[2-(4-methanesulfinylphenyl)ethyl]pyrimidine-2,4-diamine] | < 0.2 | < 0.5
Cc1c(-c2cc(NCCc3ccc(S(C)(=O)=O)cc3)nc(N)n2)cccc1C(F)(F)F [Example 198, N4-[2-(4-methanesulfonylphenyl)ethyl]-6-[2-methyl-3-(trifluoromethyl)phenyl]pyrimidine-2,4-diamine] | < 0.2 | < 0.5
Cc1c(Cl)cccc1-c1cc(NCCOc2nccc3occc23)nc(N)n1 [Example 200, 6-(3-chloro-2-methylphenyl)-N4-(2-{furo[3,2-c]pyridin-4-yloxy}ethyl)pyrimidine-2,4-diamine] | < 0.2 | < 0.5
Cc1c(Cl)cccc1-c1cc(NCCOc2ccc(C(N)=O)cc2)nc(N)n1 [Example 201] | < 0.2 | < 0.5
Cc1c(Cl)cccc1-c1cc(NCCOc2ccc(/C(N)=N/O)cc2)nc(N)n1 [Example 203, (Z)-4-(2-{[2-amino-6-(3-chloro-2-methylphenyl)pyrimidin-4-yl]amino}ethoxy)-N′-hydroxybenzene-1-carboximidamide] | < 0.2 | < 0.5
Cc1c(Cl)cccc1-c1cc(NCCCOc2ccc(S(C)(=O)=O)cc2)nc(N)n1 [Example 204, 6-(3-chloro-2-methylphenyl)-N4-[3-(4-methanesulfonylphenoxy)propyl]pyrimidine-2,4-diamine] | < 0.2 | < 0.5
Cc1c(Cl)cccc1-c1cc(NCCCOc2nccc(C(N)=O)n2)nc(N)n1 [Example 205, 2-(3-{[2-amino-6-(3-chloro-2-methylphenyl)pyrimidin-4-yl]amino}propoxy)pyrimidine-4-carboxamide] | < 0.2 | < 0.5
Cc1c(Cl)cccc1-c1cc(NCCCOc2ccc(C(N)=O)cn2)nc(N)n1 [Example 206, 6-(3-{[2-amino-6-(3-chloro-2-methylphenyl)pyrimidin-4-yl]amino}propoxy)pyridine-3-carboxamide] | < 0.2 | < 0.5
Cc1c(Cl)cccc1-c1cc(NCCc2ccc(S(=O)(=O)N3CCOCC3)cc2)nc(N)n1 [Example 207, 6-(3-chloro-2-methylphenyl)-N4-{2-[4-(morpholine-4-sulfonyl)phenyl]ethyl}pyrimidine-2,4-diamine] | < 0.2 | < 0.5
COCCNS(=O)(=O)c1ccc(CCNc2cc(-c3cccc(Cl)c3C)nc(N)n2)cc1 [Example 208, 4-(2-{[2-amino-6-(3-chloro-2-methylphenyl)pyrimidin-4-yl]amino}ethyl)-N-(2-methoxyethyl)benzene-1-sulfonamide] | < 0.2 | < 0.5
Cc1c(Cl)cccc1-c1cc(NCCc2ccc(S(=O)(=O)NC3COC3)cc2)nc(N)n1 [Example 209, 4-(2-{[2-amino-6-(3-chloro-2-methylphenyl)pyrimidin-4-yl]amino}ethyl)-N-(oxetan-3-yl)benzene-1-sulfonamide] | < 0.2 | < 0.5
Cc1c(Cl)cccc1-c1cc(NCCc2ccc(S(=O)(=O)NC3CCOCC3)cc2)nc(N)n1 [Example 210, 4-(2-{[2-amino-6-(3-chloro-2-methylphenyl)pyrimidin-4-yl]amino}ethyl)-N-(oxan-4-yl)benzene-1-sulfonamide] | < 0.2 | < 0.5
C#CCN(C)C(=O)c1ccc(CCNc2cc(-c3cccc(Cl)c3C)nc(N)n2)cc1 [Example 211, 4-(2-{[2-amino-6-(3-chloro-2-methylphenyl)pyrimidin-4-yl]amino}ethyl)-N-methyl-N-(prop-2-yn-1-yl)benzamide] | < 0.2 | < 0.5
C#Cc1ccc(CCNc2cc(-c3cccc(Cl)c3C)nc(N)n2)cc1 [Example 212, 6-(3-chloro-2-methylphenyl)-N4-[2-(4-ethynylphenyl)ethyl]pyrimidine-2,4-diamine] | < 0.2 | < 0.5
Cc1c(Cl)cccc1-c1cc(NCCOc2ccc(S(N)(=O)=O)cn2)nc(N)n1 [Example 213, 6-(2-(2-amino-6-(3-chloro-2-methylphenyl)pyrimidin-4-ylamino)ethoxy)pyridine-3-sulfonamide] | < 0.2 | < 0.5
Cc1c(Cl)cccc1-c1cc(NCCOc2ccc(S(C)(=O)=O)cn2)nc(N)n1 [Example 214, 6-(3-Chloro-2-methylphenyl)-N4-(2-(5-(methylsulfonyl)pyridin-2-yloxy)ethyl)pyrimidine-2,4-diamine] | < 0.2 | < 0.5

Continued, values first:

IC50 [1] [µM] | IC50 [2] [µM] | SMILES
< 0.2 | < 0.5 | Cc1c(Cl)cccc1-c1cc(NCCc2ccc(C(=O)OCCS(C)(=O)=O)cc2)nc(N)n1 [Example 186, 2-methylsulfonylethyl 4-[2-[[2-amino-6-(3-chloro-2-methyl-phenyl)pyrimidin-4-yl]amino]ethyl]benzoate]
< 0.2 | < 0.5 | Cc1c(Cl)cccc1-c1cc(NCCc2ccc(C(=O)OCC(O)CO)cc2)nc(N)n1 (stereo not shown) [Example 187, 2,3-dihydroxypropyl 4-[2-[[2-amino-6-(3-chloro-2-methyl-phenyl)pyrimidin-4-yl]amino]ethyl]benzoate]
< 0.2 | < 0.5 | Cc1c(Cl)cccc1-c1cc(NCCNc2ccc(S(C)(=O)=O)nc2)nc(N)n1 [Example 188, 6-(3-chloro-2-methyl-phenyl)-N4-[2-[(6-methylsulfonyl-3-pyridyl)amino]ethyl]pyrimidine-2,4-diamine]
< 0.2 | < 0.5 | CC(=O)Nc1ccc(NCCNc2cc(-c3cccc(Cl)c3C)nc(N)n2)cc1C [Example 189, N-[4-[2-[[2-amino-6-(3-chloro-2-methyl-phenyl)pyrimidin-4-yl]amino]ethylamino]-2-methyl-phenyl]acetamide]
< 0.2 | < 0.5 | CCc1ccc(CCNc2cc(-c3cccc(Cl)c3C)nc(N)n2)cc1 [Example 191, 6-(3-chloro-2-methyl-phenyl)-N4-[2-(4-ethylphenyl)ethyl]pyrimidine-2,4-diamine]
< 0.2 | < 0.5 | Cc1c(Cl)cccc1-c1cc(NCCc2ccc(C(=O)NC(C)CO)cc2)nc(N)n1 (stereo not shown) [Example 194, 4-(2-{[2-amino-6-(3-chloro-2-methylphenyl)pyrimidin-4-yl]amino}ethyl)-N-(1-hydroxypropan-2-yl)benzamide]
< 0.2 | < 0.5 | Cc1c(Cl)cccc1-c1cc(NCCc2ccc(C(=O)N3CCN(C)CC3)cc2)nc(N)n1 [Example 195, 6-(3-chloro-2-methylphenyl)-4-N-{2-[4-(4-methylpiperazine-1-carbonyl)phenyl]ethyl}pyrimidine-2,4-diamine]
